From US7160903B2, “Sulfonylaminocarboxylic acids” (Sanofi-Aventis Deutschland GmbH, priority 1997, dated 2007)

Key:
stromelysin (MMP-3) = target: T1, stromelysin (MMP-3) (Homo sapiens, UniProt P08254); test: Enzymatic activity of the catalytic domain of human stromelysin (fluorogenic substrate); format: biochemical; settings: pH=6.5, 15 min preincubation, fluorescence 328 nm (ex)/393 nm (em)
T1 construct: enzymatic activity of the catalytic domains of human stromelysin and of neutrophil collagenase; made in house
T1 sequence (P08254 100-272 limits assumed): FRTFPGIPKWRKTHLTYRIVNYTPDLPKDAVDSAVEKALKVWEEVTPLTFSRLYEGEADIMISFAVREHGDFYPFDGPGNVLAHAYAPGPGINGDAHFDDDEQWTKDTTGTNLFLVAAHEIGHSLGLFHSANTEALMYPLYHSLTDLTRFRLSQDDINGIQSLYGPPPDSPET
Description: (§1) Preparation and determination of the enzymatic activity of the catalytic domains of human stromelysin and of neutrophil collagenase:
(§2) The enzymes stromelysin (MMP-3) and neutrophil collagenase (MMP-8) were prepared according to Ye et al. (Biochemistry; 31 (1992) pages 11231–11235). To measure the enzyme activity or the enzyme inhibitor action, 70 μl of buffer solution and 10 μl of enzyme solution are incubated for 15 min with 10 μl of a 10% strength (v/v) aqueous dimethyl sulfoxide solution, which optionally contains the enzyme inhibitor. After addition of 10 μl of a 10% strength (v/v) aqueous dimethyl sulfoxide solution which contains 1 mmol/L of the substrate, the enzyme reaction is monitored by fluorescence spectroscopy (328 nm (ex)/393 nm(em)). The enzyme activity is shown as the extinction increase/min. The IC50 values listed in Table 2 are determined as those inhibitor concentrations which in each case led to a 50% inhibition of the enzyme.
(§3) The buffer solution contains 0.05% Brij (Sigma, Deisenhofen, Germany) and also 0.1 mol/L Tris/HCl, 0.1 mol/L NaCl, 0.01 mol/L CaCl2 and 0.1 mol/L piperazine-N,N′-bis[2-ethanesulfonic acid] (pH=6.5). The enzyme solution contains 5 μg/ml of one of the enzyme domains prepared according to Ye et al. The substrate solution contains 1 mmol/L of the fluorogenic substrate (7-methoxycoumarin-4-yl)acetyl-Pro-Leu-Gly-Leu-3-(2′,4′-dinitrophenyl)-L-2,3-diaminopropionyl-Ala-Arg-NH2 (Bachem, Heidelberg, Germany).

[1] = target: T2, neutrophil collagenase (MMP-8) (Homo sapiens, UniProt P22894); test: Enzymatic activity of the catalytic domain of neutrophil collagenase (fluorogenic substrate); format: biochemical; settings: pH=6.5, 15 min preincubation, fluorescence 328 nm (ex)/393 nm (em), read-out: Neutr. collagenase IC50
T2 construct: enzymatic activity of the catalytic domains of human stromelysin and of neutrophil collagenase; made in house
T2 sequence (P22894 100-262 limits assumed): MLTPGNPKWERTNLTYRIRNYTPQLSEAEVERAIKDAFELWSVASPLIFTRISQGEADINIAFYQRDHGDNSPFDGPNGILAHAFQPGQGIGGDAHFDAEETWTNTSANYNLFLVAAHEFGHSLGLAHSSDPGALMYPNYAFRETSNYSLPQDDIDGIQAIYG
Description: as §1, §2, §3

Structure (SMILES)	IC50 (stromelysin (MMP-3))	IC50 [1]	melting point
O=C(CCC(NS(=O)(=O)c1ccc(-c2ccc(N3CCCC3)cc2)cc1)C(=O)O)Nc1ccccc1 (racemic) [Example 76]	5 nM	3 nM	234 to 236 °C (dec.)
O=C(O)[C@@H](CCO)NS(=O)(=O)c1ccc(Oc2ccccc2)cc1 (racemic) [Example 1, N-(Phenoxybenzenesulfonyl) homoserine]	400 nM	10 nM	134 °C
O=C(O)C1CCCCN1S(=O)(=O)c1ccc(-n2nccn2)cc1 (racemic) [Example 63]	3000 nM	600 nM	195 to 196 °C
O=C(O)[C@@H](Cc1cccs1)NS(=O)(=O)c1ccc(-c2ccc(Cl)cc2)cc1 [Example 27]	200 nM	10 nM	> 200 °C (dec.)
O=C(O)[C@@H](Cc1c[nH]c2ccccc12)NS(=O)(=O)c1ccc(-c2ccc(N3CCCC3)cc2)cc1 [Example 71]	10 nM	2 nM	> 145 °C (dec.)
CN(C)c1ccc(-c2ccc(S(=O)(=O)N[C@@H](CCC(=O)O)C(=O)O)cc2)cc1 [Example 70]	100 nM	3 nM	> 108 °C (dec.)
Br.CN(C)c1ccc(-c2ccc(S(=O)(=O)N[C@@H](CC(=O)O)C(=O)O)cc2)cc1 [Example 40]	70 nM	2 nM	121 to 127 °C
CSCC[C@@H](NS(=O)(=O)c1ccc(-n2nccn2)cc1)C(=O)O [Example 67]	1000 nM	200 nM	155.5 to 156.5 °C
COc1ccc(CC(NS(=O)(=O)c2ccc(-c3ccc(N(C)C)cc3)cc2)C(=O)O)cc1OC (racemic) [Example 65]	100 nM	3 nM	> 230 °C (dec.)
O=C(CC[C@H](NS(=O)(=O)c1ccc(-c2ccccc2)cc1)C(=O)O)Nc1ccccc1Cl [Example 74]	100 nM	10 nM	187.5 to 188.5 °C
C[C@H](O)[C@H](NS(=O)(=O)c1ccc(Oc2ccccc2)cc1)C(=O)O [Example 9]	300 nM	20 nM	96 to 98 °C
O=C(O)[C@@H](NS(=O)(=O)c1ccc(Oc2ccccc2)cc1)[C@@H](O)c1ccc2c(c1)OCO2 (racemic) [Example 35]	100 nM	10 nM	176 °C
O=C(O)[C@@H](Cc1ccccc1)NS(=O)(=O)c1ccc(-c2ccc(C(F)(F)F)cc2)cc1 [Example 20]	400 nM	20 nM	159 to 162 °C
O=C(O)CC[C@H](NS(=O)(=O)c1ccc(-c2ccc(N3CCCC3)cc2)cc1)C(=O)O [Example 77]	4 nM	4 nM	> 220 °C (dec.)
O=C(O)CC[C@@H](NS(=O)(=O)c1ccc(-c2ccccc2)cc1)C(=O)O [Example 61]	400 nM	20 nM	155 to 158 °C
CSCC[C@H](NC(=O)CC[C@H](NS(=O)(=O)c1ccc(-c2ccccc2)cc1)C(=O)O)C(=O)O [Example 58]	40 nM	6 nM	159 to 161 °C
O=C(O)C1CCCCN1S(=O)(=O)c1ccc(-c2ccccc2)cc1 (racemic) [Example 55]	800 nM	40 nM	174.5 to 175.5 °C
O=C(CC[C@H](NS(=O)(=O)c1ccc(-c2ccccc2)cc1)C(=O)O)Nc1ccc([N+](=O)[O-])cc1 [Example 75]	300 nM	20 nM	232 to 233 °C
CC(C)C[C@H](NC(=O)CC[C@H](NS(=O)(=O)c1ccc(-c2ccccc2)cc1)C(=O)O)C(=O)O [Example 56]	30 nM	5 nM	93 to 95 °C
CN(C)c1ccc(-c2ccc(S(=O)(=O)N[C@H](Cc3c[nH]c4ccccc34)C(=O)O)cc2)cc1 [Example 66]	20 nM	2 nM	258 to 260 °C
O=C(O)[C@H](Cc1cn(S(=O)(=O)c2ccc(Oc3ccccc3)cc2)cn1)NS(=O)(=O)c1ccc(Oc2ccccc2)cc1 [Example 31]	1000 nM	50 nM	120 to 122 °C
CSCC[C@@H](NS(=O)(=O)c1ccc(-c2ccc(N(C)C)cc2)cc1)C(=O)O [Example 11]	90 nM	3 nM	180 to 186 °C
O=C(O)[C@@H](Cc1c[nH]c2ccccc12)NS(=O)(=O)c1ccc(-n2nccn2)cc1 [Example 68]	400 nM	100 nM	131 to 134 °C
O=C(O)[C@H](CO)NS(=O)(=O)c1ccc(Oc2ccccc2)cc1 [Example 8]	300 nM	10 nM	202 to 203 °C
O=C(O)CNS(=O)(=O)c1ccc(Oc2ccc(Cl)cc2)cc1 [Example 3]	20000 nM	200 nM	162 to 164 °C

The next lines start with the values.

IC50 (stromelysin (MMP-3))	IC50 [1]	melting point	Structure (SMILES)
300 nM	20 nM	> 110 °C (dec.)	NC(=O)CC[C@H](NC(=O)CC[C@H](NS(=O)(=O)c1ccc(-c2ccccc2)cc1)C(=O)O)C(=O)O [Example 95]
200 nM	20 nM	> 250 °C (dec.)	O=C(O)[C@H](CCc1nc2ccccc2[nH]1)NS(=O)(=O)c1ccc(-c2ccccc2)cc1 [Example 93]
20 nM	2 nM	> 230 °C (dec.)	O=C(O)C(Cc1c[nH]c2ccc(F)cc12)NS(=O)(=O)c1ccc(-c2ccc(N3CCCC3)cc2)cc1 (racemic) [Example 78]
7 nM	2 nM	> 228 °C (dec.)	O=C(CC[C@H](NS(=O)(=O)c1ccc(-c2ccc(N3CCCC3)cc2)cc1)C(=O)O)Nc1ccccc1 [Example 80]
30 nM	5 nM	> 245 °C (dec.)	O=C(CC[C@H](NS(=O)(=O)c1ccc(-c2ccc(Cl)cc2)cc1)C(=O)O)Nc1ccc(F)cc1 [Example 87]
400 nM	30 nM	> 155 °C (dec.)	CCN(C(=O)CC[C@H](NS(=O)(=O)c1ccc(-c2ccccc2)cc1)C(=O)O)c1ccccc1 [Example 98]
20 nM	4 nM	234.5 to 235.5 °C	O=C(CC[C@H](NS(=O)(=O)c1ccc(-c2ccccc2)cc1)C(=O)O)Nc1ccccc1 [Example 79]
3000 nM	30 nM	265 °C	O=C(CC[C@H](NS(=O)(=O)c1ccc(-c2ccccc2)cc1)C(=O)O)Nc1ccc(C(F)(F)F)cc1 [Example 85]
700 nM	50 nM	> 230 °C (dec.)	CC(=O)Nc1ccc(NC(=O)CC[C@H](NS(=O)(=O)c2ccc(-c3ccccc3)cc2)C(=O)O)cc1 [Example 99]
1000 nM	20 nM	250 to 250.5 °C	CNC(=O)c1ccc(NC(=O)CC[C@H](NS(=O)(=O)c2ccc(-c3ccccc3)cc2)C(=O)O)cc1 [Example 83]
300 nM	20 nM	219 to 221 °C	COc1ccc(NC(=O)CC[C@H](NS(=O)(=O)c2ccc(-c3ccccc3)cc2)C(=O)O)cc1 [Example 89]
100 nM	10 nM	171.5 to 172 °C	O=C(O)CCCC(NS(=O)(=O)c1ccc(-c2ccccc2)cc1)C(=O)O (racemic) [Example 82]
